Measured values: patent US10329302B2, “Bicyclic-fused heteroaryl or aryl compounds” (Pfizer Inc., priority 2014, dated 2019)

Legend:
[1] = test system: serum TNF; test: In Vivo Mouse LPS/D-Gal Challenge Model; settings: oral
Experimental: In Vivo Mouse LPS/D-Gal Challenge Model.
Efficacy of IRAK4 compounds of the present invention was also evaluated in an in vivo mouse model of endotoxin induced (Lipopolysaccharide (LPS)) inflammation. See: S. Copeland, H. W. Warren, S. F. Lowry, S. E. Calvano, and D. Remick, Clin. Diagn. Lab. Immnol. 2005, 12(1), 60-67. An exemplary protocol for this in vivo model follows.
Female C57/BL6 mice, 8 to 10 weeks old, are orally administered either vehicle or formulated IRAK-4 compound 1 hour prior to the challenge. Vehicle or IRAK4 compound is administered by oral gavage at a volume of 10 mL/kg. One hour post oral delivery of vehicle or compound, the animals are challenged with an intraperitoneal injection (IP) of a solution containing 1 μg/mL LPS and 80 mg/mL D-gal. Each mouse is injected with […] of the solution, for a final challenge dose of 100 ng LPS and 8 mg D-gal. Ninety minutes post LPS/D-gal challenge, animals are euthanized and blood collected. Blood is allowed to clot at room temperature and serum is separated by centrifugation and stored at −80° C. for analysis. Serum TNF and IL-6 are measured by Meso Scale Discovery (MSD) multiplex platform.
The groups consisted of N=10 animals/group. Naïve animals and vehicle control groups were run with each study. Mean cytokine data was plotted and students T-test was performed to calculate significance (t-test, p<0.05 vs. vehicle) of IRAK4 treated group vs. vehicle treated group. Percent inhibition of cytokine induction was calculated for IRAK4 treated group vs. vehicle treated group.
Table 4 contains data from multiple studies with columns for Compound, Dose in mg/kg (mpk) and % inhibition of serum TNF. In cases where doses of certain compounds were repeated in multiple experiments, the average percent inhibition of TNF and standard deviation is shown in the table.

[2] = test system: Female Lewis rats; test: In Vivo Rat Collagen-Induced Arthritis Model; settings: for days on which hind paw swelling was significantly reduced (t-test, p<0.05 vs. vehicle): CIA Lewis rats, paw volume by plethysmograph
Experimental: In Vivo Rat Collagen-Induced Arthritis Model.
Efficacy of IRAK4 compounds of the present invention was also evaluated in a rat in vivo model of rheumatoid arthritis (M. Hegen, J. C. Keith, Jr, M. Collins, C. L. Nickerson-Nutter, Ann. Rheum. Dis. 2008, 67, 1505-1515). An exemplary protocol for this in vivo model follows.
Female Lewis rats, approximately 7 weeks old, were immunized with an emulsion of type II collagen (CII) and incomplete Freund's adjuvant (IFA) on day 0 and received a boost of CII/IFA on day 7. Hind paw volume increase was taken by plethysmograph. Animals were randomly enrolled into treatment groups based on the development of disease. Beginning on day 11 post immunization, rats were enrolled into random treatment groups based on an increase in a single hind paw volume compared to day 7 post immunization baseline measurements.
Ten rats were enrolled per treatment group with the exception of the naive control group, which contained two rats. Day 0 was designated as the first treatment day, and paw measurements are taken daily by plethysmograph. The rats were weighed on a daily basis.
IRAK4 inhibitors are efficacious in the Lewis rat model of collagen-induced arthritis.

[3] = test system: R848-induced TNFα production by human peripheral blood mononuclear cells (PBMCs); test: R848 Induced TNFα in Human PBMC Assay; assay type: cell-based; settings: Homo sapiens, PBMC, 3 h, read-out: R848-induced TNFa PBMC IC50 (nM)
[4] = biological target: human IRAK4 kinase domain (aa 154-460) (Homo sapiens (Human), UniProt Q9NWZ3); test: IRAK4 Enzymatic DELFIA Assay, Protocol B; assay type: biochemical; settings: human IRAK4 kinase domain (aa 154-460), 0.6 mM ATP (KM); read-out: IRAK4 DELFIA Protocol B IC50
Sequence of human IRAK4 kinase domain (aa 154-460) (Q9NWZ3 154-460): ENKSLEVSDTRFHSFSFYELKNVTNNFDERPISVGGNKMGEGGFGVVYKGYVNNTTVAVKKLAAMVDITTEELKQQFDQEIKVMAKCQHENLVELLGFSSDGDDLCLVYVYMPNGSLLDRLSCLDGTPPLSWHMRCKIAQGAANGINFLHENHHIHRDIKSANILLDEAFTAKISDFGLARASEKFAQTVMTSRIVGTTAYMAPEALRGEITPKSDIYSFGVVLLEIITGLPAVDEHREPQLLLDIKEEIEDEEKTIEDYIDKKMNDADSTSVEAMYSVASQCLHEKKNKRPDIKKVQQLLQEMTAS
Excerpt: IRAK4 Enzymatic DELFIA Assay, Protocol B.

[5] = biological target: human IRAK4 FL (Full Length) (Homo sapiens (Human), UniProt Q9NWZ3); test: IRAK4 Enzymatic DELFIA Assay, Protocol A; assay type: biochemical; settings: human IRAK4 FL, 0.6 mM ATP (KM); read-out: IRAK4 DELFIA Protocol A IC50
Sequence of human IRAK4 FL (Full Length) (Q9NWZ3 whole entry): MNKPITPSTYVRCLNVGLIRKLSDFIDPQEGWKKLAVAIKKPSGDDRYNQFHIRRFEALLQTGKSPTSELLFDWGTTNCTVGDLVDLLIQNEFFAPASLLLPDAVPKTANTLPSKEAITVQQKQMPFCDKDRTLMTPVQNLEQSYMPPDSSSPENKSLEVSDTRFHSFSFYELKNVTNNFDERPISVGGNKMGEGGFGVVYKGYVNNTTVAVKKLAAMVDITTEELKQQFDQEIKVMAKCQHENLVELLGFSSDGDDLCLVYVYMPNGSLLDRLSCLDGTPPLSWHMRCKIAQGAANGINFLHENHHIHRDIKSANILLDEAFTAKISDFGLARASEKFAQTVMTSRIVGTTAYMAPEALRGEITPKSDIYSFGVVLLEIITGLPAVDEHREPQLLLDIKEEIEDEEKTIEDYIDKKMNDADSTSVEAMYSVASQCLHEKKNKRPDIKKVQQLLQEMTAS

CC(C)Oc1cc2c(OC[C@@H]3CCC(=O)N3)nccc2cc1C(N)=O [Example 26, 1-{[(2S)-5-oxopyrrolidin-2-yl]methoxy}-7-(propan-2-yloxy)isoquinoline-6-carboxamide]
% inhib TNF ([1]; Dose 10 mpk): 27 (±19) % | % inhib TNF ([1]; Dose 30 mpk): 41 (±17) % | % inhib TNF ([1]; Dose 100 mpk): 78 (±23) % | hind paw swelling in CIA rats ([2]; 10 mg/kg PO, BID): transiently significant reduction in hind paw swelling only on Day 5 and Day 6 post treatment | days on which hind paw swelling was significantly reduced (t-test, p<0.05 vs. vehicle) ([2]; 30 mg/kg PO, BID, therapeutic treatment for 8 days): Day 2-Day 8 | days on which hind paw swelling was significantly reduced (t-test, p<0.05 vs. vehicle) ([2]; 100 mg/kg PO, BID, therapeutic treatment for 8 days): Day 1-Day 8 (end) | hind paw swelling in CIA rats ([2]; therapeutic treatment BID daily for 8 days, t-test p<0.05 vs. vehicle): reduced the hind paw swelling in CIA rats significantly

COc1cc2c(OC[C@H]3NC(=O)[C@@H](F)[C@H]3C)nccc2cc1C(N)=O [Example 189, 1-{[(2S,3S,4S)-4-fluoro-3-methyl-5-oxopyrrolidin-2-yl]methoxy}-7-methoxyisoquinoline-6-carboxamide]
IC50 [3]: 12 nM | % inhib TNF ([1]; Dose 30 mpk): 40%

CC(C)Oc1cc2c(OC[C@@H]3CCN3C(=O)CC#N)nccc2cc1C(N)=O [Example 73, 1-{[(2S)-1-(cyanoacetyl)azetidin-2-yl]methoxy}-7-(propan-2-yloxy)isoquinoline-6-carboxamide]
IC50 [4]: 1160 nM | IC50 [5]: 4360 nM | IC50 [3]: 1590 nM

Cc1ccc(-n2nc(C(C)(C)C)cc2NC(=O)Nc2ccc(OCCN3CCOCC3)c3ccccc23)cc1 [BIRB796]
days on which hind paw swelling was significantly reduced (t-test, p<0.05 vs. vehicle) ([2]; 30 mg/kg PO, QD, positive control (p38 inhibitor)): Day 1-Day 8

COc1cc2c(OC[C@@H]3C[C@](C)(F)C(=O)N3)cccc2cc1C(N)=O [Example 194, 5-{[(2S,4S)-4-fluoro-4-methyl-5-oxopyrrolidin-2-yl]methoxy}-3-methoxynaphthalene-2-carboxamide]
IC50 [5]: 1 nM | IC50 [3]: 5.2 nM | % inhib TNF ([1]; Dose 30 mpk): 76%

COc1cc2c(OC[C@@H]3CCC(=O)N3)cccc2cc1C(N)=O [Example 173, 3-methoxy-5-{[(2S)-5-oxopyrrolidin-2-yl]methoxy}naphthalene-2-carboxamide]
% inhib TNF ([1]; Dose 30 mpk): 55% | % inhib TNF ([1]; Dose 100 mpk): 98%

CC(C)Oc1cc2c(O[C@@H]3C[C@@H]4CN[C@H]3C4)nccc2cc1C(N)=O [Example 108, 1-[(1S,4R,6R)-2-azabicyclo[2.2.1]hept-6-yloxy]-7-(propan-2-yloxy)isoquinoline-6-carboxamide]
IC50 [4]: 1870 nM
